Data: patent US3953483A, “17-Nor-6-methyl-steroids” (Takeda Chemical Industries, Ltd., priority 1973, dated 1976)
“Also recorded” adds a separate entry of the source.

Legend:
anti-androgenic activity = conditions: known compounds, background; cited from earlier work
liver = conditions: known compound, background; cited from earlier work
[1] = system: seminal vesicles, ventral prostate and dorsal prostates; test: anti-androgenic activity: inhibition of testosterone propionate-induced weight increase of secondary sex structures in castrated male rats, oral dosing; assay type: in vivo, rats (SD-JCL strain); conditions: for Weight of organs: Dorsal prostate / Weight of organs: Seminal vesicles / Weight of organs: Ventral prostate: average ± standard error; for Weight of organs: Dorsal prostate / Weight of organs: Seminal vesicles / Weight of organs: Ventral prostate / Percent inhibition: Dorsal prostate / Percent inhibition: Seminal vesicles / Percent inhibition: Ventral prostate: 5 rats
Description: The following is the assay data on the anti-androgenic activity of 6-methylandrosta-4,6-dien-3-one(the test compound), a compound obtainable by the method of this invention. Testing procedure: Male rats of the SD-JCL strain, 21 days of age (body weights 40-55 g.) are castrated and, beginning on the next day, a daily dose of the test compound is suspended in 0.5 ml. of aqueous solvent and orally administered via a gastric catheter once daily, every day excepting Sundays, for a total of 10 times (12 days). Simultaneously with the administration of the test compound, a daily dose of 0.15 mg. of testosterone propionate is dissolved in 0.2 ml. of sesame oil and subcutaneously injected into the dorsal region of the neck.
On the day following the last day of administration, the rats are exsanguinated under ether anaesthesia and the seminal vesicles, ventral prostate and dorsal prostates are weighed. The anti-androgenic potency of the test compound is determined as follows.
dosed with testosterone
- dosed with testosterone
(%) dosed with testosterone

[2] = testosterone propionate 0.15mg. × 10 s.c. alone
[3] = test compound 9.6mg. × 10 oral + testosterone propionate 0.15mg. × 10 s.c.
[4] = test compound 38.4mg. × 10 oral + testosterone propionate 0.15mg. × 10 s.c.

## CC[C@H]1C[C@H]2[C@@H]3CCC4=CC(=O)CC[C@@H]4[C@H]3CC[C@]2(C)[C@H]1OC(C)=O [17β-acetyloxy-16β-ethylestr-4-en-3-one]
anti-androgenic activity
  effectiveness by oral administration: little effective by oral administration

## CC[C@H]1C[C@H]2[C@@H]3CCC4=CC(=O)CC[C@@H]4[C@H]3CC[C@]2(C)[C@H]1O [16β-ethyl-17β-hydroxyestr-4-en-3-one]
anti-androgenic activity
  effectiveness by oral administration: little effective by oral administration

## CCCCCC(=O)O[C@]1(C(C)=O)CC[C@H]2[C@@H]3CCC4=CC(=O)CC[C@@H]4[C@H]3CC[C@@]21C [17α-caproyloxy-19-norprogesterone]
liver
  side effect: causes `fatty liver` as a side effect

## CCC(=O)O[C@H]1CC[C@H]2[C@@H]3CCC4=CC(=O)CC[C@]4(C)[C@H]3CC[C@]12C [testosterone propionate, reference compound]
[1]; [2]
  Weight of organs: Dorsal prostate: 96 ± 3 mg
  Weight of organs: Seminal vesicles: 337 ± 27 mg
  Weight of organs: Ventral prostate: 147 ± 7 mg

## C[C@]12CC[C@H]3[C@@H](CCC4=CC(=O)CC[C@@H]43)[C@@H]1C[C@H](C1CCCCC1)[C@@H]2O [16β-cyclohexyl-17β-hydroxyestr-4-en-3-one]
anti-androgenic activity
  effectiveness by oral administration: little effective by oral administration

## CC1=C[C@H]2[C@@H]3CCC[C@@]3(C)CC[C@@H]2[C@@]2(C)CCC(=O)C=C12 [test compound, 6-methylandrosta-4,6-dien-3-one]
[1]; oral, caused by testosterone propionate
  inhibition of weight increases of secondary sex structures / anti-androgenic activity (in words): significantly inhibits the weight increases of various secondary sex structures; also recorded: the degree of inhibition (percent inhibition) being proportional to the dosage; also recorded: potent anti-androgenic activity
[1]; [3]
  Percent inhibition: Dorsal prostate: 38%
  Percent inhibition: Seminal vesicles: 53%
  Percent inhibition: Ventral prostate: 34%
  Weight of organs: Dorsal prostate: 62 ± 3 mg
  Weight of organs: Seminal vesicles: 164 ± 15 mg
  Weight of organs: Ventral prostate: 100 ± 4 mg
[1]; [4]
  Percent inhibition: Dorsal prostate: 59%
  Percent inhibition: Seminal vesicles: 77%
  Percent inhibition: Ventral prostate: 53%
  Weight of organs: Dorsal prostate: 44 ± 2 mg
  Weight of organs: Seminal vesicles: 82 ± 5 mg
  Weight of organs: Ventral prostate: 74 ± 4 mg
